# Results reported in patent US6706663B2, “Herbicidal 3-heterocyclic substituted benzisothiazole and benzisoxazole compounds” (Wyeth, priority 2000, dated 2004).
# How the values were obtained:
# [1] = system: SETVI (Setaria viridis); assay: Postemergence herbicidal evaluation; type: in vivo, (L.) Beau
# How it was run: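 First, seedlings are raised in flats for about two weeks. Next, compound dispersed in 50/50 acetone/water with 0.5% TWEEN 20 is sprayed at 40 psi to deliver about 0.0040–1.000 kg/ha. Plants are then maintained in the greenhouse and rated 0-9 after four to five weeks.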
# [2] = system: AMBEL (Ambrosia artemisifolia); assay: Preemergence herbicidal evaluation; type: in vivo, L.; details: preemergence, rated 4-5 weeks after treatment
# How it was run: (§1)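 Seeds planted in potting soil cups and sprayed preemergence with aqueous acetone compound solution. Greenhouse-grown; rated 4–5 weeks after treatment on a 0-9 visual scale (stand, vigor, malformation, size, chlorosis, appearance) versus control.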
# [3] = system: CHEAL (Chenopodium album); assay: Preemergence herbicidal evaluation; type: in vivo, L.; details: preemergence, rated 4-5 weeks after treatment
# How it was run: as §1
# [4] = system: CASOB (Cassia obtusifolia); assay: Preemergence herbicidal evaluation; type: in vivo, L.; details: preemergence, rated 4-5 weeks after treatment
# How it was run: as §1
# [5] = system: CYPIR (Cyperus iria); assay: Flooded paddy, preemergence weed control; type: in vivo; details: rated 3-4 weeks after treatment, 0-9 rating scale
# How it was run: (§2)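 Seeds or propagating organs were sown in the top 0.5 cm of silt loam soil, flooded, and the water kept 1.5 to 3 cm above the soil surface throughout. Plants were grown in the greenhouse and rated visually on a 0-9 scale against a control.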
# [6] = system: CYPSE (Cyperus serotinus); assay: Flooded paddy, preemergence weed control; type: in vivo, Rottb.; details: rated 3-4 weeks after treatment, 0-9 rating scale
# How it was run: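 Seeds or propagules were planted 0.5 cm deep in silt loam and flooded to 1.5–3 cm. Compounds in 50/50 v/v aqueous/acetone were pipetted into the flood water at about 0.0080 to 0.1250 kg/ha. After 3–4 weeks in the greenhouse, effect was rated visually on a 0–9 scale versus untreated control.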
# [7] = system: ORYSAT (Rice, Tebonnet); assay: Flooded paddy, post-transplant rice tolerance; type: in vivo, Oryza sativa, (L.) Tebonnet; details: flooded paddy, post-transplant rice, rated 3-4 weeks after treatment, 0-9 rating scale
# How it was run: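 Two ten-day-old Tebonnet rice seedlings transplanted into silt loam, then flooded with water held at 1.5–3 cm above soil; herbicide applied post-transplant. Plants kept in greenhouse and rated visually 0–9 versus untreated control for stand, vigor, malformation, size and chlorosis.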
# [8] = system: SAGPY (Sagittaria pygmaea); assay: Flooded paddy, preemergence weed control; type: in vivo, L.; details: rated 3-4 weeks after treatment, 0-9 rating scale
# How it was run: as §2
# [9] = system: IPOHE (Ipomoea hederacea); assay: Preemergence herbicidal evaluation; type: in vivo, (L.) Jacq.; details: preemergence, rated 4-5 weeks after treatment
# [10] = system: GLXMAW (Soybean, Williams); assay: Preemergence herbicidal evaluation; type: in vivo, Glycine max, (L.) Merr. cv Williams; details: preemergence, rated 4-5 weeks after treatment
# [11] = system: MOOVA (Monochoria vaginalis); assay: Flooded paddy, preemergence weed control; type: in vivo, Presl.; details: rated 3-4 weeks after treatment, 0-9 rating scale
# How it was run: as §2
# [12] = system: ECHORC (Echinochloa oryzoides); assay: Flooded paddy, preemergence weed control; type: in vivo, Echinochloa oryzoides (Ard.) Fritsch.; details: rated 3-4 weeks after treatment, 0-9 rating scale
# How it was run: as §2
# [13] = system: TRZAWR (Wheat, Winter, cv Riband); assay: Postemergence herbicidal evaluation; type: in vivo, Triticum aestivum
# How it was run: (§3)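 Seedlings grown about two weeks in flats, sprayed, then kept under standard greenhouse care. Rated visually 4–5 weeks after treatment on a 0–9 scale (stand, vigour, malformation, size, chlorosis, overall appearance) relative to untreated control; repeat tests averaged.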
# [14] = system: ECHCG (Echinochloa crus-galli); assay: Postemergence herbicidal evaluation; type: in vivo, (L.) Beau
# How it was run: as §3
# [15] = system: ABUTH (Abutilon theophrasti); assay: Preemergence herbicidal evaluation; type: in vivo, Medic.; details: preemergence, rated 4-5 weeks after treatment
# [16] = system: ZEAMX (Corn, Field); assay: Preemergence herbicidal evaluation; type: in vivo, Zea mays, L.; details: preemergence, rated 4-5 weeks after treatment
smiles,measurement,setting,value
"CCOC(=O)C1CS[C@H](c2nsc3ccc(-n4c(=O)cc(C(F)(F)F)n(C)c4=O)cc23)N1 (stereo partly drawn) [Compound 2, ethyl (R)-2-[5-[3,6-dihydro-3-methyl-2,6-dioxo-4-(trifluoromethyl)-1(2H)-pyrimidinyl]-1,2-benzisothiazol-3-yl]-4-thiazolidinecarboxylate]","Postemergence herbicidal rating, SETVI",[1]; rate 0.0320 kg/ha,6.0
same,"Postemergence herbicidal rating, SETVI",[1]; rate 0.0620 kg/ha,7.0
same,AMBEL preemergence herbicidal rating,[2]; Rate 0.0620 kg/ha,7.0
same,AMBEL preemergence herbicidal rating,[2]; Rate 0.1250 kg/ha,8.0
same,AMBEL preemergence herbicidal rating,[2]; Rate 0.2500 kg/ha,9.0
same,CHEAL preemergence herbicidal rating,[3]; Rate 0.0620 kg/ha,9.0
same,CHEAL preemergence herbicidal rating,[3]; Rate 0.1250 kg/ha,9.0
same,CHEAL preemergence herbicidal rating,[3]; Rate 0.2500 kg/ha,9.0
same,CASOB preemergence herbicidal rating,[4]; Rate 0.0620 kg/ha,5.0
same,CASOB preemergence herbicidal rating,[4]; Rate 0.1250 kg/ha,7.5
same,CASOB preemergence herbicidal rating,[4]; Rate 0.2500 kg/ha,7.0
same,"herbicidal rating, CYPIR",[5]; rate 0.0320 kg/ha,0.0
same,"herbicidal rating, CYPIR",[5]; rate 0.1250 kg/ha,2.0
same,"herbicidal rating, CYPSE",[6]; rate 0.0320 kg/ha,0.0
same,"herbicidal rating, CYPSE",[6]; rate 0.1250 kg/ha,0.0
same,"herbicidal rating, ORYSAT (rice tolerance)",[7]; rate 0.0320 kg/ha,1.0
same,"herbicidal rating, ORYSAT (rice tolerance)",[7]; rate 0.1250 kg/ha,4.0
same,"herbicidal rating, SAGPY",[8]; rate 0.0320 kg/ha,0.0
same,"herbicidal rating, SAGPY",[8]; rate 0.1250 kg/ha,0.0
same,IPOHE preemergence herbicidal rating,[9]; Rate 0.0620 kg/ha,9.0
same,IPOHE preemergence herbicidal rating,[9]; Rate 0.1250 kg/ha,9.0
same,IPOHE preemergence herbicidal rating,[9]; Rate 0.2500 kg/ha,9.0
same,GLXMAW preemergence herbicidal rating,[10]; Rate 0.0620 kg/ha,5.5
same,GLXMAW preemergence herbicidal rating,[10]; Rate 0.1250 kg/ha,8.0
same,GLXMAW preemergence herbicidal rating,[10]; Rate 0.2500 kg/ha,8.0
same,"herbicidal rating, MOOVA",[11]; rate 0.0320 kg/ha,6.0
same,"herbicidal rating, MOOVA",[11]; rate 0.1250 kg/ha,9.0
same,"herbicidal rating, ECHORC",[12]; rate 0.0320 kg/ha,0.0
same,"herbicidal rating, ECHORC",[12]; rate 0.1250 kg/ha,2.0
same,"Postemergence herbicidal rating, TRZAWR",[13]; rate 0.0320 kg/ha,5.0
same,"Postemergence herbicidal rating, TRZAWR",[13]; rate 0.0620 kg/ha,6.5
same,"Postemergence herbicidal rating, ECHCG",[14]; rate 0.0320 kg/ha,3.0
same,"Postemergence herbicidal rating, ECHCG",[14]; rate 0.0620 kg/ha,4.0
same,ABUTH preemergence herbicidal rating,[15]; Rate 0.0620 kg/ha,9.0
same,ABUTH preemergence herbicidal rating,[15]; Rate 0.1250 kg/ha,9.0
same,ABUTH preemergence herbicidal rating,[15]; Rate 0.2500 kg/ha,9.0
same,ZEAMX preemergence herbicidal rating,[16]; Rate 0.0620 kg/ha,3.5
same,ZEAMX preemergence herbicidal rating,[16]; Rate 0.1250 kg/ha,6.5
same,ZEAMX preemergence herbicidal rating,[16]; Rate 0.2500 kg/ha,7.5
"Cn1c(C(F)(F)F)cc(=O)n(-c2ccc3snc(-c4cccs4)c3c2)c1=O [Compound 3, 1-methyl-3-[3-(2-thienyl)-1,2-benzisothiazol-5-yl]-6-(trifluoromethyl)uracil]","Postemergence herbicidal rating, SETVI",[1]; rate 0.0320 kg/ha,3.0
same,"Postemergence herbicidal rating, SETVI",[1]; rate 0.0620 kg/ha,9.0
same,"Postemergence herbicidal rating, SETVI",[1]; rate 0.1250 kg/ha,9.0
same,AMBEL preemergence herbicidal rating,[2]; Rate 0.0620 kg/ha,8.0
same,AMBEL preemergence herbicidal rating,[2]; Rate 0.1250 kg/ha,9.0
same,AMBEL preemergence herbicidal rating,[2]; Rate 0.2500 kg/ha,9.0
same,CHEAL preemergence herbicidal rating,[3]; Rate 0.0620 kg/ha,9.0
same,CHEAL preemergence herbicidal rating,[3]; Rate 0.1250 kg/ha,9.0
same,CHEAL preemergence herbicidal rating,[3]; Rate 0.2500 kg/ha,9.0
same,CASOB preemergence herbicidal rating,[4]; Rate 0.0620 kg/ha,4.0
same,CASOB preemergence herbicidal rating,[4]; Rate 0.1250 kg/ha,4.5
same,CASOB preemergence herbicidal rating,[4]; Rate 0.2500 kg/ha,5.5
same,"herbicidal rating, CYPIR",[5]; rate 0.0080 kg/ha,0.0
same,"herbicidal rating, CYPIR",[5]; rate 0.0320 kg/ha,8.5
same,"herbicidal rating, CYPIR",[5]; rate 0.1250 kg/ha,9.0
same,"herbicidal rating, CYPSE",[6]; rate 0.0080 kg/ha,0.0
same,"herbicidal rating, CYPSE",[6]; rate 0.0320 kg/ha,6.5
same,"herbicidal rating, CYPSE",[6]; rate 0.1250 kg/ha,6.5
same,"herbicidal rating, ORYSAT (rice tolerance)",[7]; rate 0.0080 kg/ha,3.0
same,"herbicidal rating, ORYSAT (rice tolerance)",[7]; rate 0.0320 kg/ha,3.5
same,"herbicidal rating, ORYSAT (rice tolerance)",[7]; rate 0.1250 kg/ha,5.5
same,"herbicidal rating, SAGPY",[8]; rate 0.0080 kg/ha,0.0
same,"herbicidal rating, SAGPY",[8]; rate 0.0320 kg/ha,1.0
same,"herbicidal rating, SAGPY",[8]; rate 0.1250 kg/ha,5.5
same,IPOHE preemergence herbicidal rating,[9]; Rate 0.0620 kg/ha,9.0
same,IPOHE preemergence herbicidal rating,[9]; Rate 0.1250 kg/ha,9.0
same,IPOHE preemergence herbicidal rating,[9]; Rate 0.2500 kg/ha,9.0
same,GLXMAW preemergence herbicidal rating,[10]; Rate 0.0620 kg/ha,5.5
same,GLXMAW preemergence herbicidal rating,[10]; Rate 0.1250 kg/ha,9.0
same,GLXMAW preemergence herbicidal rating,[10]; Rate 0.2500 kg/ha,9.0
same,"herbicidal rating, MOOVA",[11]; rate 0.0080 kg/ha,9.0
same,"herbicidal rating, MOOVA",[11]; rate 0.0320 kg/ha,9.0
same,"herbicidal rating, MOOVA",[11]; rate 0.1250 kg/ha,9.0
same,"herbicidal rating, ECHORC",[12]; rate 0.0080 kg/ha,2.0
same,"herbicidal rating, ECHORC",[12]; rate 0.0320 kg/ha,8.0
same,"herbicidal rating, ECHORC",[12]; rate 0.1250 kg/ha,9.0
same,"Postemergence herbicidal rating, TRZAWR",[13]; rate 0.0320 kg/ha,2.5
same,"Postemergence herbicidal rating, TRZAWR",[13]; rate 0.0620 kg/ha,4.5
same,"Postemergence herbicidal rating, TRZAWR",[13]; rate 0.1250 kg/ha,5.0
same,"Postemergence herbicidal rating, ECHCG",[14]; rate 0.0320 kg/ha,2.0
same,"Postemergence herbicidal rating, ECHCG",[14]; rate 0.0620 kg/ha,3.0
same,"Postemergence herbicidal rating, ECHCG",[14]; rate 0.1250 kg/ha,4.0
same,ABUTH preemergence herbicidal rating,[15]; Rate 0.0620 kg/ha,8.5
same,ABUTH preemergence herbicidal rating,[15]; Rate 0.1250 kg/ha,9.0
same,ABUTH preemergence herbicidal rating,[15]; Rate 0.2500 kg/ha,9.0
same,ZEAMX preemergence herbicidal rating,[16]; Rate 0.0620 kg/ha,6.5
same,ZEAMX preemergence herbicidal rating,[16]; Rate 0.1250 kg/ha,6.5
same,ZEAMX preemergence herbicidal rating,[16]; Rate 0.2500 kg/ha,7.0
